Experimental data reported in US4537896A, “Thrombin inhibiting arylsulfonyl guanidinophenylalanine amides” (KabiVitrum AB, priority 1982, dated 1985).
Where a name gives a salt, the structure may show the parent alone.

Key:
[1] = target: T1, human thrombin (Homo sapiens, UniProt P00734); assay: Determination of Ki, inhibition of reaction of thrombin with substrate S-2238; assay type: biochemical
T1 construct: human thrombin; purchased Sigma Chemical Co., St. Louis, U.S.A
Procedure: (§1) The inhibition of reaction of the enzymes (human thrombin; Sigma Chemical Co., St. Louis, U.S.A. and human factor Xa; KabiVitrum AB, Stockholm) with the substrates (S-2238 resp. S-2222, Kabi Diagnostica, Stockholm) was determined at three different substrate concentrations from 0.3 to 2 km. Six different inhibitor concentrations, which give inhibition from 40% to 90%, were incubated with the enzyme for 30 seconds at 37° C. The buffer composition, ionic strength, pH and enzyme concentration were the same as those recommended in the booklets from Kabi Diagnostica. The initial reaction velocity (ΔA/min) was measured on a recorder at 405 nm. Ki values were than graphically determined from Dixon and Lineweaver-Burk diagrams.
Ki of thrombin is given in mol/l.

[2] = target: T2, human factor Xa (Homo sapiens, UniProt P00742); assay: Determination of Ki, inhibition of reaction of factor Xa with substrate S-2222; assay type: biochemical; details: Table 3; read-out: Ki FXa (converted)
T2 construct: human factor Xa; purchased KabiVitrum AB, Stockholm
Procedure: as §1

[3] = system: thrombin; details: literature; cited from earlier work
[4] = system: thrombin; assay: Thrombin time, plasma (prolongation of coagulation time initiated by thrombin); assay type: biochemical, dog; details: for Thrombin time, plasma: concentration of the inhibitor which doubles the thrombin time of dog plasma: Table 1, 37° C., 30 seconds incubation; for "Thrombin time" Concentration required to prolong the coagulation time by a factor of 2: Table 3
Procedure: A volume of 200 μl citrate-plasma was heated for 1 minute at 37° C. The coagulation was started by adding 10 μl fresh thrombin solution (about 5 NIH U/ml) and the coagulation time was registrated by a fibrinometer. At the inhibition experiments the plasma was incubated for 30 seconds with 10 μl inhibitor solution at different concentrations before the thrombin solutions was added.
"Thrombin time" designates the concentration (mol/l) of the inhibitor, which doubles the thrombin time of dog plasma. The Arg derivates have been synthesized according to ref. 1 and 2.Tos-Gph-OMe has been synthesized according to ref. 6.

[5] = system: trypsin; details: literature; cited from earlier work
[6] = system: thrombin; details: literature; cited from earlier work; remark: listed apart in the source

T2 sequence (P00742 235-488 limits assumed): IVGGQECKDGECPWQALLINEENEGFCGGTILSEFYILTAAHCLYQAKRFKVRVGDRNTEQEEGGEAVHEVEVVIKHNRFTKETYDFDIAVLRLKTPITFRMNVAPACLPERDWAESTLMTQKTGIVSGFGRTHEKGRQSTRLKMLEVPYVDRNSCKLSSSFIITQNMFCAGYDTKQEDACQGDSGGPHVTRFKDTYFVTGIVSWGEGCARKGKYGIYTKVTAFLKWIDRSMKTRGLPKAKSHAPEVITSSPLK
T2 sequence (P00742 41-179 partner limits assumed): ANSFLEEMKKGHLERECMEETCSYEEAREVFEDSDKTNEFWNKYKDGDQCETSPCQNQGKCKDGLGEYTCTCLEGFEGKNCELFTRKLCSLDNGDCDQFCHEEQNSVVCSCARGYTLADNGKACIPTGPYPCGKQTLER

Row | Ki ([1]; Table 3) | Ki [2] | SMILES | "Thrombin time" Concentration required to prolong the coagulation time by a factor of 2 [4] | also measured
1 | 0.08 µM | 300 µM | CN(C)c1cccc2c(S(=O)(=O)N[C@@H](Cc3ccc(NC(=N)N)cc3)C(=O)N3CCCCCC3)cccc12 [vi] | – | –
2 | – | – | CCOC(=O)[C@H](CCCNC(=N)N)NC(=O)c1ccccc1 [BAEE, Bz-Arg-OEt] | – | substrate for / split by thrombin [3]: can be split by thrombin
3 | 0.09 µM | 250 µM | CN(C)c1cccc2c(S(=O)(=O)N[C@@H](Cc3ccc(NC(=N)N)cc3)C(=O)N3CCCCC3)cccc12 [i, N^α -Dansyl-p-guanidino-Phe-piperidide hydrochloride] | 6.10^-7 mol/l | Thrombin time, plasma: concentration of the inhibitor which doubles the thrombin time of dog plasma [4]: 6.10^-7 mol/l
4 | – | – | CCOC(=O)[C@H](Cc1ccc(NC(=N)N)cc1)NC(=O)c1ccccc1 [Bz-Gph-OEt] | – | substrate for trypsin [5]: comparable with Tos-Gph-OMe and Tos-Arg-OMe (TAME)
5 | 0.35 µM | 130 µM | CCCCN(C)C(=O)[C@H](Cc1ccc(NC(=N)N)cc1)NS(=O)(=O)c1cccc2c(N(C)C)cccc12 [ix] | 2.5.10^-7 mol/l | –
6 | – | 20 µM | CC1CCN(C(=O)[C@H](Cc2ccc(NC(=N)N)cc2)NS(=O)(=O)c2ccc3ccccc3c2)CC1 [ii, N^α -(Naphthalene-2-sulfonyl)-p-guanidino-Phe-4-methyl-piperidide hydrochloride] | 1.10^-6 mol/l | Ki ([1]; Table 2, Gph-derivatives): 0.31 µM
7 | 0.7 µM | 300 µM | CN1CCN(C(=O)[C@H](Cc2ccc(NC(=N)N)cc2)NS(=O)(=O)c2cccc3c(N(C)C)cccc23)CC1 [viii] | 1.6.10^-7 mol/l | –
8 | – | – | CN(C)c1cccc2c(S(=O)(=O)N[C@@H](CCCNC(=N)N)C(=O)N3CCCCC3)cccc12 [Dansyl--Arg--piperidide, reference compound] | – | Ki ([1]; Table 1): 0.09 µM; Thrombin time, plasma: concentration of the inhibitor which doubles the thrombin time of dog plasma [4]: 2.10^-6 mol/l
9 | – | 370 µM | CC1CCN(C(=O)[C@H](Cc2ccc(NC(=N)N)cc2)NS(=O)(=O)c2cccc3ccccc23)CC1 [iii, α-Naphthalenesulfonyl--Gph--4-methylpiperidide] | – | Ki ([1]; Table 2, Gph-derivatives): 0.35 µM
10 | – | 250 µM | Cc1ccc(S(=O)(=O)N[C@@H](Cc2ccc(NC(=N)N)cc2)C(=O)N2CCCCC2)cc1 [v, Tos--Gph--piperidide] | 1.10^-6 mol/l | Ki ([1]; Table 2, Gph-derivatives): 0.8 µM; Thrombin time, plasma: concentration of the inhibitor which doubles the thrombin time of dog plasma [4]: 1.10^-6 mol/l
11 | – | 50 µM | N=C(N)Nc1ccc(C[C@H](NS(=O)(=O)c2ccc3ccccc3c2)C(=O)N2CCOCC2)cc1 [iv, β-Naphthalenesulfonyl--Gph--morpholide] | 8.10^-7 mol/l | Ki ([1]; Table 2, Gph-derivatives): 0.18 µM
12 | – | – | Cc1ccc(S(=O)(=O)N[C@@H](CCCNC(=N)N)C(=O)N2CCCCC2)cc1 [Tos--Arg--piperidide, reference compound] | – | Ki ([1]; Table 1): 5 µM
13 | 0.23 µM | 200 µM | CCCC1CCN(C(=O)[C@H](Cc2ccc(NC(=N)N)cc2)NS(=O)(=O)c2cccc3c(N(C)C)cccc23)CC1 [vii] | 1.5.10^-5 mol/l | –
14 | – | – | COC(=O)[C@H](Cc1ccc(NC(=N)N)cc1)NS(=O)(=O)c1ccc(C)cc1 [Tos--Gph--OMe] | – | Ki ([1]; Table 1): 7.5 µM; substrate for trypsin [5]: good substrate for trypsin; inhibition of thrombin [6]: ability to inhibit the amidase- and esterase activity of thrombin; substrate for / split by thrombin [3]: bad substrate for thrombin
